The text below walks through data of ChEMBL document CHEMBL1143207, “New 7,8-benzoflavanones as potent aromatase inhibitors: synthesis and biological evaluation” (Bioorg Med Chem, 2008).

For this assay, the target named is T1, Aromatase (Homo sapiens, UniProt P11511).
T1 sequence (P11511 whole entry): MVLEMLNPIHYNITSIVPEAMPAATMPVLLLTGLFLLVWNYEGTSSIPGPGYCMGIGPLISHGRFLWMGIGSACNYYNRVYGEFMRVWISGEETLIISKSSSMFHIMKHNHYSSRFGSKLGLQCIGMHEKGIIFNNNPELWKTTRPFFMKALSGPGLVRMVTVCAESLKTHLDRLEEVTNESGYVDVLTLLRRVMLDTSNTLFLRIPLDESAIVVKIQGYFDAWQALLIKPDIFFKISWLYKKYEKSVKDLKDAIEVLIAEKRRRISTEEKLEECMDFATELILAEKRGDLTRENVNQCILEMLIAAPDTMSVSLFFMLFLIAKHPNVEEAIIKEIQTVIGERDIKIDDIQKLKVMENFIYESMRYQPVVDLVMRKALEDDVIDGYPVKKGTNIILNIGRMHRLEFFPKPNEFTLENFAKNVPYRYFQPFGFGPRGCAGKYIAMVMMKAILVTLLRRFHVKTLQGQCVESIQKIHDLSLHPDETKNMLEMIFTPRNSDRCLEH
Format: microsomes, Placenta, Microsomes.
Description: Inhibition of human aromatase in placental microsomes
Compound `O=C1C[C@@H](c2ccc(O)cc2)Oc2cc(O)ccc21` [LIQUIRTIGENIN] yielded an IC50 of 2100 nM.
In turn, `O=C1CC(c2cccc(O)c2)Oc2c1ccc1ccccc21` (configuration not stated) displayed a half-maximal inhibitory concentration (IC50) of 610 nM.
Next, `O=C1CC(c2ccc(O)cc2)Oc2c1ccc1ccccc21` (configuration not stated): 630 nM.
For the compound `N#Cc1cccc(C2CC(=O)c3ccc4ccccc4c3O2)c1` (configuration not stated), the midpoint of inhibition, the IC50, lay at 1370 nM.
For `O=C1CC(c2ccccc2)Oc2c1ccc1ccccc21` (configuration not stated) the value was 4300 nM; for `N#Cc1ccc(C2CC(=O)c3ccc4ccccc4c3O2)cc1` (configuration not stated), 1540 nM.
For `O=C1CC(c2cccc(O)c2)Oc2cc(O)ccc21` (configuration not stated) the value was 3400 nM.
